The target of assay [1] is T1, RAF kinases (Homo sapiens, UniProt P15056). Briefly: biochemical.
The subject of a further assay is A375 cells. Briefly: cells. The conditions noted are these: Homo sapiens, A-375, read-out: A375 Viability EC50.
In assay [2] the test system is MEK1 phosphorylation in the A375 human melanoma cell line. Briefly: cells. The conditions noted are these: A-375, read-out: pMEK IC50.
Assay [3] has as its target T2, RAF kinases (Homo sapiens, UniProt P15056, V600E). The conditions noted are these: read-out: BRAF V600E Kd; BRAF V600E.
For assay [4], the target named is T3, RAF kinases (Homo sapiens, UniProt P04049). Particulars: read-out: RAF1 Kd; RAF1.
T3 sequence (P04049 whole entry): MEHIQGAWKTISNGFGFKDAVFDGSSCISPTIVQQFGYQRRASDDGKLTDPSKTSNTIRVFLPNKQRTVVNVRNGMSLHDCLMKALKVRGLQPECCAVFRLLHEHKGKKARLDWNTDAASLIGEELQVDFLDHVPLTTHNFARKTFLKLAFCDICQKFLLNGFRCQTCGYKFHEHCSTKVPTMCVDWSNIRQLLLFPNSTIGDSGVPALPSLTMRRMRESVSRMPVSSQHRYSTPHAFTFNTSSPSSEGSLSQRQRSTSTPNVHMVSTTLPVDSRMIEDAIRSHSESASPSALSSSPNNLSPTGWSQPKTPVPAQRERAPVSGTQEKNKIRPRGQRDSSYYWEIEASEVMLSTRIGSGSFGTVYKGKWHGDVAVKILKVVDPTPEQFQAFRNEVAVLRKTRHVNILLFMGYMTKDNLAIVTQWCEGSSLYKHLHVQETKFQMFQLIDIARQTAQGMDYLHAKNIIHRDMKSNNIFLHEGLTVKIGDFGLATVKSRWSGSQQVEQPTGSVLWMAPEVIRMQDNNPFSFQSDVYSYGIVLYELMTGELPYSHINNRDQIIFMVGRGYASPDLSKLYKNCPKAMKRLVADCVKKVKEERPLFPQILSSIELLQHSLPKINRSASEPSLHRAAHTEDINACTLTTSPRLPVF
Assay [5] deals with T3, RAF kinases. Briefly: biochemical.
The target in assay [6] is T1, RAF kinases. The conditions noted are these: read-out: BRAF WT Kd; BRAF WT.
Assay [7] concerns the target T2, RAF kinases. Briefly: biochemical.

Molecules are shown by their SMILES. Read-outs that look alike come from different tables or passages of the source.

T2 sequence (P15056 whole entry V600E): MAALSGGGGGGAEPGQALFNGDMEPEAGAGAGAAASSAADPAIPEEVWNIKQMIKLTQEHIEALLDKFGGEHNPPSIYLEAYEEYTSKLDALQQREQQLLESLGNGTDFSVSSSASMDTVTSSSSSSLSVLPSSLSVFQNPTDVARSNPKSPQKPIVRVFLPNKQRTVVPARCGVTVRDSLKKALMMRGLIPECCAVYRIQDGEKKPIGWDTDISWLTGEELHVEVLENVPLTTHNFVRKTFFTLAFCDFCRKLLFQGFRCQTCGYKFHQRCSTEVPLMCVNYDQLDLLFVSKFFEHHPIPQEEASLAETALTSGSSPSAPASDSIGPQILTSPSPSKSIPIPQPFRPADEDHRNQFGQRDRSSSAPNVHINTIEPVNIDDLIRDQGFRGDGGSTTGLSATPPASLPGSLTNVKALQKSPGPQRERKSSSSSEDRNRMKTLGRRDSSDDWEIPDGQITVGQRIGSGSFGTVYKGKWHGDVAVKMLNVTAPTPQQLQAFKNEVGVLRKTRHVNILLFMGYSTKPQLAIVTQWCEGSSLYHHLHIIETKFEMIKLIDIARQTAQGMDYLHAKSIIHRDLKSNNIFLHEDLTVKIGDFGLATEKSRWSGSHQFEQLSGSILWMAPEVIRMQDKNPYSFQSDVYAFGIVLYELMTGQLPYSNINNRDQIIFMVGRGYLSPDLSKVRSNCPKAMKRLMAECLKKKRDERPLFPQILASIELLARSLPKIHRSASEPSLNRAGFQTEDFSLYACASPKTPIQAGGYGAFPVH
T1 sequence (P15056 whole entry): as the sequence (P15056 whole entry V600E) above, with E600V counted along it

By Kd is commonly meant the concentration at which binding is half-saturated. Broadly, the EC50 is the concentration at which the effect is half-maximal. For orientation: IC50 means the point on the concentration scale where inhibition reaches its midpoint. For `COc1cc2ncnc(Oc3cccc(NC(=O)Nc4cc(C(C)(C)C(F)(F)F)on4)c3F)c2cc1OC` [Ex 265, 1-(3-(6,7-dimethoxyquinazolin-4-yloxy)-2-fluorophenyl)-3-(5-(1,1,1-trifluoro-2-methylpropan-2-yl)isoxazol-3-yl)urea], the dissociation constant Kd was 250 to 500 nM on RAF kinases [1], less than 250 nM on RAF kinases [3] and less than 250 nM on RAF kinases [4]. In addition, the EC50 in the assay on A375 cells is 250 to 500 nM. In addition, the IC50 in assay [2] was less than 250 nM.

Take `COc1cc2ncnc(Oc3cccc(NC(=O)Nc4cc(C(F)(F)F)no4)c3)c2cc1OC` [Ex 254, 1-(3-(6,7-dimethoxyquinazolin-4-yloxy)phenyl)-3-(3-(trifluoromethyl)isoxazol-5-yl)urea]: the values for the Kd at RAF kinases [1], at RAF kinases [3] and at RAF kinases [4] were 250 to 500 nM, less than 250 nM and less than 250 nM, respectively. The half-maximal effective concentration (EC50) in the assay on A375 cells was greater than 1000 nM. Besides, the IC50 in assay [2] was greater than 1000 nM.

For the compound `COCCOc1cc2ncnc(Sc3cccc(NC(=O)Nc4cc(C5CCCC5)on4)c3)c2cc1OC` [Ex 235, 1-(5-cyclopentylisoxazol-3-yl)-3-(3-(6-methoxy-7-(2-methoxyethoxy)quinazolin-4-ylthio)phenyl)urea], the Kd on RAF kinases [1] was 250 to 500 nM; at RAF kinases [3] it was less than 250 nM; at RAF kinases [4], less than 250 nM. In addition, the EC50 in the assay on A375 cells was greater than 1000 nM. In addition, the IC50 in assay [2] lay in the range of 250 to 500 nM.

Take `COc1cc2ncnc(Oc3cc(NC(=O)Nc4cc(C(F)(F)F)nn4-c4ccccc4)ccc3F)c2cc1OC` [Ex 397, 1-(3-(6,7-Dimethoxyquinazolin-4-yloxy)-4-fluorophenyl)-3-(1-phenyl-3-(trifluoromethyl)-1H-pyrazol-5-yl)urea]: the Kd at RAF kinases [5] is 500 to 1000 nM; on RAF kinases [6] it was greater than 1000 nM; on RAF kinases [3] it was less than 250 nM. Moreover, the EC50 in the assay with A375 cells lay within 250 to 500 nM. Besides, in assay [2], the IC50 was less than 250 nM.

With `COc1cc2ncnc(Oc3cccc(NC(=O)Nc4cc(C(C)(C)C)nn4-c4cccc(Cl)c4)c3)c2cc1OC` [Ex 363, 1-(3-tert-butyl-1-(3-chlorophenyl)-1H-pyrazol-5-yl)-3-(3-(6,7-dimethoxyquinazolin-4-yloxy)phenyl)urea], the values for the Kd on RAF kinases [1], at RAF kinases [3] and at RAF kinases [4] were 250 to 500 nM, less than 250 nM and greater than 1000 nM, respectively. In assay [2], the IC50 was less than 250 nM.

Take `COCCOc1cc2ncnc(Oc3cccc(NC(=O)Nc4cc(C(F)(F)F)no4)c3)c2cc1OC` [Ex 229, 1-(3-(6-methoxy-7-(2-methoxyethoxy)quinazolin-4-yloxy)phenyl)-3-(3-(trifluoromethyl)isoxazol-5-yl)urea]: the Kd at RAF kinases [1] was 250 to 500 nM; on RAF kinases [3] it was less than 250 nM; at RAF kinases [4], less than 250 nM. The EC50 with A375 cells is greater than 1000 nM. The IC50 in assay [2] was greater than 1000 nM.

Turning to `COc1cc2ncnc(Oc3ccc(Cl)c(NC(=O)Nc4cc(C(C)(C)C)on4)c3)c2cc1OC` [Ex 299, 1-(5-tert-butylisoxazol-3-yl)-3-(2-chloro-5-(6,7-dimethoxyquinazolin-4-yloxy)phenyl)urea], the values for the Kd on RAF kinases [1], at RAF kinases [3] and at RAF kinases [4] were 250 to 500 nM, less than 250 nM and less than 250 nM, respectively. In addition, the IC50 in assay [2] was less than 250 nM.

Take `COc1cc2ncnc(Oc3cccc(NC(=O)Nc4cc(C(C)(C)C(F)(F)F)on4)c3)c2cc1OC` [Ex 259, 1-(3-(6,7-dimethoxyquinazolin-4-yloxy)phenyl)-3-(5-(1,1,1-trifluoro-2-methylpropan-2-yl)isoxazol-3-yl)urea]: the Kd on RAF kinases [1], on RAF kinases [3] and at RAF kinases [4] was less than 250 nM throughout. For the same compound, in the assay with A375 cells, the EC50 was less than 250 nM. Moreover, the IC50 in assay [2] was less than 250 nM.

`COCCOc1cc2ncnc(Oc3cccc(NC(=O)Nc4cc(C(C)(C)F)no4)c3)c2cc1OC` [Ex 218, 1-(3-(2-fluoropropan-2-yl)isoxazol-5-yl)-3-(3-(6-methoxy-7-(2-methoxyethoxy)quinazolin-4-yloxy)phenyl)urea]: the Kd is 250 to 500 nM on RAF kinases [1], less than 250 nM on RAF kinases [3] and less than 250 nM at RAF kinases [4]. Further, in the assay with A375 cells, the EC50 was greater than 1000 nM. Also, in assay [2], the half-inhibitory concentration (IC50) fell in the range of 250 to 500 nM.

`COCCOc1cc2ncnc(Sc3cccc(NC(=O)Nc4cccc(C(C)(C)C#N)c4)c3)c2cc1OC` [Ex 281, 1-(3-(2-cyanopropan-2-yl)phenyl)-3-(3-(6-methoxy-7-(2-methoxyethoxy)quinazolin-4-ylthio)phenyl)urea]: the dissociation constant (Kd) on RAF kinases [1], at RAF kinases [7] and on RAF kinases [5] was less than 250 nM throughout. Besides, the EC50 with A375 cells is greater than 1000 nM. The IC50 in assay [2] was 250 to 500 nM.

For `COCCOc1cc2ncnc(Oc3cccc(NC(=O)Nc4cc(C(C)(CF)CF)on4)c3)c2cc1OC` [Ex 213, 1-[5-(1,3-difluoro-2-methylpropan-2-yl)isoxazol-3-yl]-3-{3-[6-methoxy-7-(2-methoxyethoxy)quinazolin-4-yloxy]phenyl}urea], the dissociation constant (Kd) at RAF kinases [1] was 250 to 500 nM; at RAF kinases [3] it was less than 250 nM; at RAF kinases [4], less than 250 nM. The concentration giving a half-maximal response (EC50) with A375 cells was less than 250 nM. In addition, the half-inhibitory concentration (IC50) in assay [2] is less than 250 nM.

`COc1cc2ncnc(Oc3cccc(NC(=O)Nc4cc(C(C)(C)C)nn4Cc4ccccc4)c3)c2cc1OC` [Ex 357, 1-(1-benzyl-3-tert-butyl-1H-pyrazol-5-yl)-3-(3-(6,7-dimethoxyquinazolin-4-yloxy)phenyl)urea]: the Kd was 500 to 1000 nM on RAF kinases [1], less than 250 nM on RAF kinases [3] and greater than 1000 nM on RAF kinases [4]. The EC50 in the assay on A375 cells is greater than 1000 nM. The IC50 in assay [2] fell in the range of 250 to 500 nM.

For `COc1cc2ncnc(Sc3cccc(NC(=O)Nc4cc(C(C)(C)C(F)(F)F)on4)c3)c2cc1OC` [Ex 261, 1-(3-(6,7-dimethoxyquinazolin-4-ylthio)phenyl)-3-(5-(1,1,1-trifluoro-2-methylpropan-2-yl)isoxazol-3-yl)urea], the Kd is 250 to 500 nM on RAF kinases [1], less than 250 nM at RAF kinases [7] and less than 250 nM at RAF kinases [5]. The EC50 with A375 cells is greater than 1000 nM. Besides, the IC50 in assay [2] was less than 250 nM.

Turning to `COc1cc2ncnc(Oc3cccc(NC(=O)Nc4cc(C(C)(C)F)no4)c3)c2cc1OCCCS(C)(=O)=O` [Ex 42, 1-(3-(2-fluoropropan-2-yl)isoxazol-5-yl)-3-(3-(7-methoxy-6-(3-(methylsulfonyl)propoxy)quinazolin-4-yloxy)phenyl)urea], the Kd at RAF kinases [1], on RAF kinases [7] and on RAF kinases [5] was less than 250 nM each time. Besides, the EC50 with A375 cells was in the range of 500 to 1000 nM. Also, the 50% inhibitory concentration (IC50) in assay [2] lay within 250 to 500 nM.

Turning to `COc1cc2ncnc(Sc3cccc(NC(=O)Nc4cc(C(C)(C)C)nn4-c4cccc(Cl)c4)c3)c2cc1OC` [Ex 364, 1-(3-tert-butyl-1-(3-chlorophenyl)-1H-pyrazol-5-yl)-3-(3-(6,7-dimethoxyquinazolin-4-ylthio)phenyl)urea], the Kd on RAF kinases [1] was 500 to 1000 nM; on RAF kinases [3] it was less than 250 nM; on RAF kinases [4], greater than 1000 nM. Moreover, the IC50 in assay [2] is less than 250 nM.

With `COc1cc2ncnc(Oc3cccc(NC(=O)Nc4cc(C(C)(C)C)nn4-c4ccc(C(C)(C)C)cc4)c3)c2cc1OC` [Ex 369, 1-(3-tert-butyl-1-(4-tert-butylphenyl)-1H-pyrazol-5-yl)-3-(3-(6,7-dimethoxyquinazolin-4-yloxy)phenyl)urea], the Kd was 500 to 1000 nM at RAF kinases [1], less than 250 nM at RAF kinases [3] and greater than 1000 nM on RAF kinases [4]. Besides, the EC50 in the assay on A375 cells was greater than 1000 nM. Further, the IC50 in assay [2] is less than 250 nM.

On to `COc1cc2ncnc(Oc3cccc(NC(=O)Nc4cc(C(C)(C)F)no4)c3)c2cc1OC` [Ex 126, 1-(3-(6,7-dimethoxyquinazolin-4-yloxy)phenyl)-3-(3-(2-fluoropropan-2-yl)isoxazol-5-yl)urea], for which the Kd is 250 to 500 nM on RAF kinases [1], less than 250 nM on RAF kinases [7] and less than 250 nM at RAF kinases [5]. Moreover, the EC50 in the assay on A375 cells was 500 to 1000 nM. Also, the IC50 in assay [2] was less than 250 nM.

As to `COc1cc2ncnc(Oc3cccc(NC(=O)Nc4cc(C(C)(CF)CF)no4)c3)c2cc1OC` [Ex 159, 1-[3-(1,3-difluoro-2-methylpropan-2-yl)isoxazol-5-yl]-3-[3-(6,7-dimethoxyquinazolin-4-yloxy]phenyl)urea], the Kd was in the range of 500 to 1000 nM on RAF kinases [1], 250 to 500 nM on RAF kinases [7] and 500 to 1000 nM on RAF kinases [5]. Besides, the EC50 with A375 cells is greater than 1000 nM. The IC50 in assay [2] fell in the range of 250 to 500 nM.

Regarding `COCCOc1cc2ncnc(Oc3cccc(NC(=O)Nc4cc(C(C)(C)COC)on4)c3)c2cc1OC` [Ex 217, 1-(5-(1-methoxy-2-methylpropan-2-yl)isoxazol-3-yl)-3-(3-(6-methoxy-7-(2-methoxyethoxy)quinazolin-4-yloxy)phenyl)urea], the Kd is 250 to 500 nM on RAF kinases [1], less than 250 nM on RAF kinases [7] and 250 to 500 nM on RAF kinases [5]. Besides, the EC50 in the assay with A375 cells is greater than 1000 nM. In addition, the IC50 in assay [2] lay within 250 to 500 nM.

For the compound `COCCOc1cc2ncnc(Oc3cccc(NC(=O)Nc4cc(-c5ccccc5)on4)c3)c2cc1OC` [Ex 203, 1-(3-(6-methoxy-7-(2-methoxyethoxy)quinazolin-4-yloxy)phenyl)-3-(5-phenylisoxazol-3-yl)urea], the Kd at RAF kinases [1], at RAF kinases [7] and on RAF kinases [5] was greater than 1000 nM throughout. Further, the EC50 in the assay with A375 cells is greater than 1000 nM. For the same compound, the IC50 in assay [2] was greater than 1000 nM.

Turning to `COCCOc1cc2ncnc(Oc3cccc(NC(=O)Nc4cc(C(C)(C)C)nn4C)c3)c2cc1OC` [Ex 209, 1-(3-tert-butyl-1-methyl-1H-pyrazol-5-yl)-3-(3-(6-methoxy-7-(2-methoxyethoxy)quinazolin-4-yloxy)phenyl)urea], the figures for the Kd on RAF kinases [1], at RAF kinases [7] and on RAF kinases [5] were greater than 1000 nM, 250 to 500 nM and greater than 1000 nM, respectively. For the same compound, the EC50 with A375 cells is greater than 1000 nM. The IC50 in assay [2] fell in the range of 500 to 1000 nM.

The record behind these values is patent US8618289B2 (Ambit Biosciences Corporation, priority 2008, dated 2013).
